Assay results as given in the METLIN SMRT retention time set (Domingo-Almenara et al. 2019).

Assay: gradient 5% acetonitrile 3 min, to 50% in 2 min, to 85% in 15 min, held 3 min, 100 µL/min
Conditions: column: Zorbax Extend-C18 2.1 x 50 mm; eluents: water / acetonitrile, 0.1% formic acid
In short: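 Values are retention times taken from adduct peaks that software picked and an analyst inspected. The pure standards were run as mixtures of ~100 molecules on HPLC linked to a quadrupole time-of-flight mass spectrometer, in positive and negative ionization mode. A Zorbax Extend-C18 column (2.1 × 50 mm, 1.8 μm) was used at 100 μL/min with water and acetonitrile, each including 0.1% formic acid.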

Structure (SMILES) | RP-LC retention time
CCOC(=O)c1ccc(N2C=C(C#N)S(=O)(=O)c3ccc(C)cc32)cc1 | 978 s
O=C(Nc1ccc2c(c1)OCCO2)N1CC(c2nc(CCOCC3CC3)no2)C1 | 754 s
COc1cccc(C(C)NC(=O)C2CCCN(c3nccnc3Sc3ccc(C)cc3)C2)c1 (stereo not drawn) | 1120 s
O=C(NCc1ccco1)c1c(O)c2cccnc2n(Cc2ccccc2)c1=O | 1250 s
CCOc1cc(=O)n2c(c1C(=O)Nc1ccc(Cl)cc1C)CCCC2 | 786 s
CCN1C(=O)c2cccnc2Sc2cc(NC(C)=O)ccc21 | 627 s
CSc1ccc(CNc2cc(-n3nc(C)cc3C)ncn2)cc1 | 1000 s
Cc1ccccc1CNC(=O)C1(C)Oc2cccnc2N(C)C1=O (stereo not drawn) | 786 s
Cc1ccc(NC(=O)c2[nH]c3cc(C)sc3c2CN2CCOCC2)c(Cl)c1 | 731 s
COc1ccccc1NC(=O)N1CCC(CNC(=O)CCSc2ccccc2)CC1 | 771 s
O=C(Nc1ccc2nc3n(c(=O)c2c1)CCCC3)c1cc2ccccc2[nH]1 | 720 s
CS(=O)(=O)N1CC(F)(F)C[C@H]1c1nc(-c2ccncc2)no1 | 693 s
CC(C)(C)C(O)CCNC(=O)C(=O)NC1CC1 (stereo not drawn) | 622 s
Cc1cccc2c(=O)n(C3CCN(C(=O)Nc4cccc(C(F)(F)F)c4)CC3)cnc12 | 952 s
COc1ccc(S(=O)(=O)N2C[C@H]3CN(C(=O)Nc4ccccc4C)C[C@@H](C2)O3)cc1 | 771 s
O=C(Nc1ccc(F)c(F)c1)C1CCN(c2cc(N3CCSCC3)ncn2)CC1 | 709 s
Cc1c(C2CCN(C(=O)NCc3ccc(F)cc3)CC2)noc1N | 683 s
CC(=O)N1CCC2(CC1)NC(=O)c1ccccc1O2 | 633 s

Structure (SMILES) | RP-LC retention time
COc1cccc(NS(=O)(=O)c2ccc(-c3c(C)noc3C)cc2)c1 | 884 s
COc1ccc(CCNC(=O)c2nc(CCS(=O)(=O)c3ccccc3)no2)cc1OC | 754 s
COc1cccc(CNC2=NCCNC23CCN(S(=O)(=O)c2ccc(C)cc2C)CC3)c1 | 747 s
CN(C)C(CNS(=O)(=O)c1ccc(Cl)cc1)c1ccccc1 (stereo not drawn) | 652 s
Cc1ccccc1-n1c(=O)c2sccc2n(Cc2nc(-c3ccc(C(C)(C)C)cc3)no2)c1=O | 1080 s
CN1CCN(c2ccccc2NC(=O)C2CCCN(c3ncnc4c3nc3n4CCCCC3)C2)CC1 (stereo not drawn) | 635 s
O=S(=O)(c1cccc(F)c1)N1CCC(n2c(-c3ccoc3)nc3cccnc32)C1 (stereo not drawn) | 872 s
Cc1nc([C@@H]2CN(C(=O)c3noc(C)c3Cn3cccn3)C[C@H]2C(N)=O)n[nH]1 | 578 s
O=C(Cc1cccc(Cl)c1)N1CC2CN(S(=O)(=O)c3cccc(F)c3)CC(C1)O2 | 900 s
CC(C)c1cc(C2CCCN2C(=O)NC(C)(C)C)on1 (stereo not drawn) | 835 s
Cc1nn(C(C)C(=O)Nc2cccc(F)c2)c(=O)c2c(-n3cccc3)n(-c3ccccc3)nc12 (stereo not drawn) | 1120 s
CCCNC(=O)C1CCCN(c2nc3ncn(CC(=O)Nc4ccccc4)c(=O)c3s2)C1 (stereo not drawn) | 683 s
CCOC(=O)c1cnc2nc(C)ccc2c1Nc1cc(OC)c(OC)c(OC)c1 | 671 s
Cc1cccc(N2CCN(c3cc(C(=O)O)c4cc(NC(=O)C(C)(C)C)ccc4n3)CC2)c1C | 774 s
O=C(Cn1ccn2nc(-c3ccccc3)c(CO)c2c1=O)NC1CCCC1 | 721 s
C=CCNC(=O)c1cn(-c2cc(-c3nc(C(C)(C)C)no3)ccn2)cn1 | 879 s
Cc1ccc(C)c(NS(=O)(=O)c2cc3c(s2)CCN(C(=O)C2CCC2)C3)c1 | 859 s
Clc1cccc(-c2nc3ccc(Cl)cn3c2Nc2ccc3c(c2)OCO3)c1 | 978 s

More lines, now with the values ahead:

RP-LC retention time | Structure (SMILES)
692 s | O=C(CCC(=O)N1CC2CCCN2c2ccccc21)N1CCN(Cc2ccc3c(c2)OCO3)CC1 (stereo not drawn)
668 s | CCCC(NC(=O)c1cccs1)C(=O)Nc1nc2ccccc2[nH]1 (stereo not drawn)
598 s | O=[N+]([O-])c1ccc(-c2cn3ccccc3n2)cc1
610 s | CCNc1ncnc2sc3c(c12)CCN(C(=O)CCOC)C3
586 s | CCCN1CCN(C(=O)CC(C)S(=O)(=O)c2ccc3c(c2)CCN3C(C)=O)CC1 (stereo not drawn)
644 s | CC(C)CNC(=O)c1ccc2nc(CCc3ccc(NC(=O)C(C)C)cc3)[nH]c2c1
1150 s | COc1ccccc1Nc1nc(-c2ccccc2)cs1
655 s | O=C(CSc1nc2ccsc2c(=O)n1-c1ccccc1)Nc1ncn[nH]1
774 s | CCCn1ccc2sc(C)c(C(=O)O)c2c1=O
1020 s | Cc1coc(C)c1C(=O)Nc1ncc(Cc2ccc(Cl)cc2)s1
539 s | COCCNC(=O)N1CCCCC1c1nncn1Cc1ccccc1 (stereo not drawn)
573 s | COCCN1CCC(N2CCCN(C(=O)c3ccc(F)c(Cl)c3)CC2)C1=O (stereo not drawn)
886 s | COc1ccc(CCN2CC(=O)N(c3ccc(C)c(C)c3)[C@@H]3CS(=O)(=O)C[C@@H]32)cc1
683 s | O=C(c1cc(-c2ccccc2)n[nH]1)N1C[C@H]2CNC(=O)[C@]23CCCC[C@@H]13
599 s | O=C(NCCNC(=O)c1ccc(N2CCOCC2)nn1)c1ccc(NC(=O)C2CC2)cc1
623 s | Cc1ccc2oc(N3CCN(C(=O)c4cccc(-c5noc(C)n5)c4)CC3)nc2n1
603 s | CC(C)c1ccccc1NS(=O)(=O)c1cc(-c2nc(C(C)(C)C)cs2)cs1
971 s | COc1cc(NC(=O)c2cc3cc4cc(OC)ccc4nc3o2)cc(OC)c1
778 s | CCCCNC(=O)CCC(=O)N1CCCn2nc(-c3cn(C)c4ccccc34)cc21
639 s | CCn1ccc(C(=O)N2CCCn3cc(-c4cccc(C#N)c4)nc32)n1
698 s | NC(=O)c1ccc2c(c1)CCN2C(=O)C1CCCC1
561 s | COCC(=O)N[C@@H]1CN(C2CCCCCC2)CC[C@@H]1CO
563 s | CS(=O)(=O)N1CCC(C(=O)Nc2cc(N3CCOCC3)ncn2)CC1
874 s | CCCS(=O)(=O)N1CCCN(C2=NS(=O)(=O)C(c3ccc(C)cc3)=C2C)CC1
900 s | Cc1nc(-c2ccc(NC(=O)N3CCCc4ccccc43)cc2)no1
787 s | CC(C)CNC(=O)c1nnc(-c2ccc(S(=O)(=O)N(C)C)cc2)o1

RP-LC retention time | Structure (SMILES)
838 s | COCCNC(=O)c1nnc(-c2ccc(S(=O)(=O)N3CCC(C)CC3)cc2)o1
1020 s | O=C(CC(c1ccccc1)c1ccccc1)N1CC(c2nc(-c3ccccc3)no2)C1
722 s | CCCCOc1ccc(NC(=O)c2cc(=O)c3ccc(C)cc3o2)c2cccnc12
635 s | O=C(CSc1ccc(N2CCCC(C(=O)NC3CC3)C2)nn1)NCc1ccccc1Cl (stereo not drawn)
572 s | COCCO[C@H]1C(=O)N(C2CCN(S(=O)(=O)C(C)C)CC2)[C@H]1c1ccncc1
622 s | CN1CCN(Cc2nn(C)c3c2CN(S(=O)(=O)c2ccc(F)c(Cl)c2)CC3)CC1
910 s | Cc1cccc(NC(=O)C2CCN(S(=O)(=O)c3ccc4c(c3)sc(=O)n4C)CC2)c1
625 s | O=C(CCc1nnn2c1CN(C(=O)Nc1ccc3c(c1)OCCO3)CC2)N1CCCC1
1030 s | Cc1ccccc1OCC(=O)N1CCCC(COCc2ccccc2)C1 (stereo not drawn)
575 s | Cc1cc(Cc2ccc(S(=O)(=O)N3CCN(C)CC3)cc2)c(=O)[nH]n1
946 s | Cc1ccc(CNC(=O)Cn2nc(C)c3nn(-c4ccccc4)c(-n4cccc4)c3c2=O)o1
856 s | O=C(Nc1cnc(-c2ccccc2)nc1)C1CCC1
763 s | N#Cc1cccc(NC(=O)CN2C(=O)NC(c3ccc(Cl)cc3)C3=C2COC3=O)c1 (stereo not drawn)
936 s | O=C(OCn1nnc2ccccc2c1=O)c1ccc(S(=O)(=O)N2CCCCC2)cc1
717 s | O=C(C1=CN(c2ccc3c(c2)OCO3)c2ccccc2S1(=O)=O)N1CCOCC1
632 s | O=C(NCc1cccs1)c1coc(NC(=O)c2ccco2)n1
1120 s | CC(O)(CNC(=O)C(=O)NCCC1=CCCCC1)c1cccs1 (stereo not drawn)
708 s | CCOc1cc(=O)n2c(c1C(=O)Nc1ccc(C#N)cc1)CCCC2
1080 s | O=S(=O)(c1cc(-c2nnc(C3CC3)o2)co1)N1CCC(Cc2ccccc2)CC1
648 s | O=S(=O)(c1ccc(F)cc1F)N1CCC(CN2CCCCCC2)CC1
885 s | O=C(CN1C(=O)C2CCCCN2c2ccc(S(=O)(=O)N3CCCC3)cc21)NCCc1ccco1 (stereo not drawn)
792 s | Cc1ccc(OCC(=O)Nc2nnc(C3CC(=O)N(c4ccc(F)cc4)C3)o2)cc1 (stereo not drawn)
1150 s | O=C(Nc1ccc(-c2nc(-c3cccc(Br)c3)co2)cc1)c1ccco1
810 s | O=C(COc1ccc(F)cc1)N1CCC2(CC1)NC(=O)N(Cc1ccc(Cl)cc1)C2=O
690 s | COc1ccc2c(OCc3nnc4ccc(-c5ccccc5)nn34)ccnc2c1
674 s | O=C(NCCn1ncccc1=O)Nc1ccc(OC(F)(F)F)cc1
